Experimental data as given in patent publication US6787541B1, “Thieno-and furopyrimidine derivatives as A2A-receptor antagonists” (Vernalis Research Limited, priority 1999, dated 2004).
Structures can show the parent of a compound that is named as a salt.

Row | melting point | SMILES
1 | 161 to 163 °C | Cc1ccc(C(=O)c2nc(C(F)(F)F)nc3ccsc23)s1
2 | > 190 °C (dec.) | NCCNc1nc(C(=O)c2cccs2)c2sccc2n1 (as salt: hydrochloride) [Example 55, 2-(2-Aminoethylamino)thieno[3,2-d]pyrimidin-4-yl 2-thienylmethanone dihydrochloride]
3 | > 150 °C (dec.) | CN(C)CCNc1nc(C(=O)c2cccs2)c2sccc2n1 (as salt: hydrochloride) [Example 66, 2-(2-Dimethylaminoethylamino)thieno[3,2-d]pyrimidin-4-yl 2-thienylmethanone dihydrochloride]
4 | 151 °C | CN(C)CC(=O)Nc1nc(C(=O)c2cccs2)c2sccc2n1 (as salt: hydrochloride) [Example 169, 2-Dimethylamino-N-(4-(2-thienylcarbonyl)thieno[3,2-d]pyrimidin-2-yl)acetamide hydrochloride]
5 | 128 to 130 °C | O=C(c1cccc(Cl)c1)c1nc(C(F)(F)F)nc2ccsc12 [Example 9, 3-Chlorophenyl 2-trifluoromethylthieno[3,2-d]pyrimidin-4-ylmethanone]
6 | 147 to 149 °C | O=C(c1cc(Cl)cc(Cl)c1)c1nc(C(F)(F)F)nc2ccsc12 [Example 10, 3,5-Dichlorophenyl 2-trifluoromethylthieno[3,2-d]pyrimidin-4-ylmethanone]
7 | 221 to 223 °C | O=C(c1cc2ccccc2o1)c1nc(C(F)(F)F)nc2ccsc12 [Example 15, 2-Benzofuranyl 2-trifluoromethylthieno[3,2-d]pyrimidin-4-ylmethanone]
8 | 188 to 190 °C | Cc1csc2c(C(=O)c3cccs3)nc(Cl)nc12 [Example 24, 2-Chloro-7-methylthieno[3,2-d]pyrimidin-4-yl 2-thienylmethanone]
9 | 155 to 157 °C | COc1ccc(C(=O)c2nc(C(F)(F)F)nc3ccsc23)cc1 [Example 27, 4-Methoxyphenyl 2-trifluoromethylthieno[3,2-d]pyrimidin-4-ylmethanone]
10 | 127 to 128 °C | O=C(c1ccc(Cl)cc1)c1nc(C(F)(F)F)nc2ccsc12 [Example 30, 4-Chlorophenyl 2-trifluoromethylthieno[3,2-d]pyrimidin-4-ylmethanone]
11 | 185 to 186 °C | O=C(c1ccc([N+](=O)[O-])cc1)c1nc(C(F)(F)F)nc2ccsc12 [Example 31, 4-Nitrophenyl 2-trifluoromethylthieno[3,2-d]pyrimidin-4-ylmethanone]
12 | 131 to 133 °C | Cc1cccc(C(=O)c2nc(C(F)(F)F)nc3ccsc23)c1 [Example 32, 3-Methylphenyl 2-trifluoromethylthieno[3,2-d]pyrimidin-4-ylmethanone]
13 | 147 to 149 °C | CCc1nc(C(O)c2cccs2)c2sccc2n1 (stereo not drawn) [Example 36, 2-Ethyl-α-(2-thienyl)thieno[3,2-d]pyrimidine-4-methanol]
14 | 156 to 158 °C | Cc1csc2c(C(=O)c3cccs3)nc(N(C)C)nc12 [Example 38, 2-Dimethylamino-7-methylthieno[3,2-d]pyrimidin-4-yl 2-thienylmethanone]
15 | 157 to 158 °C | OC(c1cccs1)c1nc(C(F)(F)F)nc2ccsc12 (stereo not drawn) [Example 41, α-(2-Thienyl)-2-trifluoromethylthieno[3,2-d]pyrimidine-4-methanol]
16 | 144 to 146 °C | Cc1nc(C(O)c2cccs2)c2sccc2n1 (stereo not drawn) [Example 53, 2-Methyl-α-(2-thienyl)thieno[3,2-d]pyrimidine-4-methanol]

Row | melting point | SMILES
17 | 262 to 263 °C | Cc1c(C(=O)c2nc(C(F)(F)F)nc3ccsc23)sc2ccccc12 [Example 62, 3-Methylbenzothiophene-2-yl 2-trifluoromethylthieno[3,2-d]pyrimidin-4-ylmethanone]
18 | 212.2 to 212.5 °C | CC(=O)NCCNc1nc(C(=O)c2cccs2)c2sccc2n1 [Example 90, N-(2-(4-(2-Thienylcarbonyl)thieno[3,2-d]pyrimidin-2-yl)aminoethyl)acetamide]
19 | > 140 °C (dec.) | O=C(c1cccs1)c1nc(NCc2ccco2)nc2ccsc12 [Example 96, 2-(2-Furylmethylamino)thieno[3,2-d]primidin-4-yl 2-thienylmethanone]
20 | 210 to 212 °C | CN(C)c1nc(C(=O)c2ccco2)c2sccc2n1 [Example 105, 2-Dimethylaminothieno[3,2-d]pyrimidin-4-yl 2-furylmethanone]
21 | 161 to 163 °C | O=C(c1cccnc1)c1nc(NCCO)nc2ccsc12 [Example 106, 2-(2-Hydroxyethylamino)thieno[3,2-d]pyrimidin-4-yl 3-pyridylmethanone]
22 | 229.1 to 229.4 °C | O=C(c1cccs1)c1nc(N2CCCC2)nc2ccsc12 [Example 109, 2-(Pyrrolidin-1-yl)thieno[3,2-d]pyrimidin-4-yl 2-thienylmethanone]
23 | 155.9 to 156.3 °C | COC(=O)[C@@H]1CCCN1c1nc(C(=O)c2cccs2)c2sccc2n1 [Example 115, (2S)-N-(4-(2-Thienylcarbonyl)thieno[3,2-d]pyrimidin-2-yl)proline methyl ester]
24 | 165.1 to 165.7 °C | Cc1ccsc1C(=O)c1nc(N(C)C)nc2ccsc12 [Example 117, 2-Dimethylaminothieno[3,2-d]pyrimidin-4-yl 3-methyl-2-thienylmethanone]
25 | 126.4 to 127.1 °C | CC(C)(CO)Nc1nc(C(=O)c2cccs2)c2sccc2n1 [Example 119, 2-(1-Hydroxy-2-methyl-2-propylamino)thieno[3,2-d]pyrimidin-4-yl 2-thienylmethanone]
26 | 151.6 to 152.4 °C | CN(CCN)c1nc(C(=O)c2cccs2)c2sccc2n1 [Example 120, 2-(N-(2-Aminoethyl)-N-methylamino)thieno[3,2-d]pyrimidin-4-yl 2-thienylmethanone]
27 | > 131 °C (dec.) | O=C(c1cccs1)c1nc(N2CCC[C@@H]2C(=O)O)nc2ccsc12 [Example 121, (2R)-N-(4-(2-Thienylcarbonyl)thieno[3,2-d]pyrimidin-2-yl)proline]
28 | 185.7 to 186.2 °C | CCOC(=O)c1nc(C(=O)c2cccs2)c2sccc2n1 [Example 122, Ethyl 4-(2-thienylcarbonyl)thieno[3,2-d]pyrimidin-2-carboxylate]
29 | 144.6 to 145.2 °C | COC(=O)CNc1nc(C(=O)c2cccs2)c2sccc2n1 [Example 123, Methyl (4-(2-thienylcarbonyl)thieno[3,2-d]pyrimidin-2-ylamino)acetate]
30 | 232.1 to 233.7 °C | NC(=O)CNc1nc(C(=O)c2cccs2)c2sccc2n1 [Example 125, (4-(2-Thienylcarbonyl)thieno[3,2-d]pyrimidin-2-ylamino)acetamide]
31 | 232.8 to 233 °C | COC(=O)c1nc(C(=O)c2cccs2)c2sccc2n1 [Example 126, Methyl 4-(2-thienylcarbonyl)thieno[3,2-d]pyrimidin-2-carboxylate]
32 | 242.1 to 242.7 °C | CS(=O)(=O)NNc1nc(C(=O)c2cccs2)c2sccc2n1 [Example 128, Methanesulphonic acid 2-(4-(2-thienylcarbonyl)thieno[3,2-d]pyrimidin-2-yl)hydrazide]
